Measured values as given in patent US9926581B2, “Fagopyritol synthase genes and uses thereof” (Cornell Research Foundation, Inc., priority 2002, dated 2018).
“Also recorded” adds a separate entry of the source.

Key:
Details in all cases: for activity as galactosyl acceptor: UDP-Gal as galactosyl donor, 20 mM substrates, 5 mM MnCl2, 30° C.
GmGolS = experiment: Galactinol synthase / fagopyritol synthase enzyme assay with recombinant GmGolS; format: biochemical, Glycine max
Description: (§1) Both the crude soluble protein extracts from E. coli and the purified GolS recombinant proteins were used in enzyme assays. […] In galactinol synthase assays, UDP-Gal was substituted with 20 mM galactinol as the galactosyl donor. Assays were run at 30° C. for 30 to 300 minutes. Reactions were stopped by addition of 50 μL of 100% ethanol.
Both crude soluble protein extracts from E. coli containing the recombinant GmGolS protein and purified recombinant GmGolS protein were used in enzyme assays. […] Assays were run at 30° C. for 30 to 300 minutes. Reactions were stopped by addition of 50 μL of 100% ethanol.
(§2) The reactions were stopped after 3 hours with the addition of 50 μL of 100% EtOH.
(§3) To determine the concentration of Mn^2+ in which the enzymes had the greatest activity, multiple assays were completed varying the amount of Mn^2+. […] After 3 hours, the reactions were stopped with the addition of 50 μL of 100% EtOH.
(§4) The reactions were completed using 1-2 μg of enzyme in a 50 μL solution containing 20 mM galactosyl acceptor, 20 mM UDP-galactose, 50 mM HEPES, pH 7.0, 2 mM DTT, 5 mM Mn^2+ at 30° C. After 3 hours, the reactions were stopped with the addition of 50 of 100% EtOH.
(§5) All samples from the assays were analyzed by gas chromatography. All were prepared for analysis in the same way. […] The solution was then filtered using NanoSep tubes and 100 μL was transferred to a silation vial. The samples were then dried under nitrogen and desiccated over P2O5 overnight. The dried samples were then derivitized with 100 μL of TMSI:pyridine (1:1, v/v) and then analyzed by gas chromatography.

FeGolS-2 = FeGolS-2 (Fagopyrum esculentum, UniProt Q7XZ07); experiment: Fagopyritol synthase / galactinol synthase enzyme assay with recombinant FeGolS-2 (products by gas chromatography); format: biochemical
Sequence of FeGolS-2 (Q7XZ07 entry or part of it): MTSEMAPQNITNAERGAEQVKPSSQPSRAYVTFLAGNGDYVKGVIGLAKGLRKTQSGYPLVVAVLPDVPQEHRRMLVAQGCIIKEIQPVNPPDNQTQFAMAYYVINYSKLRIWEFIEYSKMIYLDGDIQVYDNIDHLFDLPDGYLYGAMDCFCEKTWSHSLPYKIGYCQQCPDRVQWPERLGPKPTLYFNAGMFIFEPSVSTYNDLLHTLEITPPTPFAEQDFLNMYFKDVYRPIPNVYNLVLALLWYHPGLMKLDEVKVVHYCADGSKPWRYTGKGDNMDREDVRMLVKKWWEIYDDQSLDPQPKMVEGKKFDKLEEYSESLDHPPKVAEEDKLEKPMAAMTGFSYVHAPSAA
Description: as §1, §2, §3, §4, §5

FeGolS-1 = experiment: Fagopyritol synthase / galactinol synthase enzyme assay with recombinant FeGolS-1 (products by gas chromatography); format: biochemical, Fagopyrum esculentum
Description: Both the crude soluble protein extracts from E. coli and the purified GolS recombinant proteins were used in enzyme assays. […] In galactinol synthase assays, UDP-Gal was substituted with 20 mM galactinol as the galactosyl donor. Assays were run at 30° C. for 30 to 300 minutes. Reactions were stopped by addition of 50 μL of 100% ethanol. […] The reactions were stopped after 3 hours with the addition of 50 μL of 100% EtOH. […] To determine the concentration of Mn^2+ in which the enzymes had the greatest activity, multiple assays were completed varying the amount of Mn^2+. […] After 3 hours, the reactions were stopped with the addition of 50 μL of 100% EtOH. […] After 3 hours, the reactions were stopped with the addition of 50 of 100% EtOH. All samples from the assays were analyzed by gas chromatography. All were prepared for analysis in the same way. […] The solution was then filtered using NanoSep tubes and 100 μL was transferred to a silation vial. The samples were then dried under nitrogen and desiccated over P2O5 overnight. The dried samples were then derivitized with 100 μL of TMSI:pyridine (1:1, v/v) and then analyzed by gas chromatography.

[1] = 20 mM galactosyl donor instead of UDP-Gal

| SMILES | activity as galactosyl acceptor (GmGolS) | activity as galactosyl acceptor (FeGolS-1) | further results |
| --- | --- | --- | --- |
| CO[C@H]1[C@H](O)[C@@H](O)[C@@H](O)[C@H](O)[C@@H]1O [D-Pinitol, 1D-3-O-methyl-chiro-inositol] | not active |  |  |
| COC1[C@H](O)[C@H](O)C(O)[C@H](O)[C@H]1O (stereo partly drawn) [D-bornesitol, 1D-1-O-methyl-myo-inositol] | reduced activity | can be used as galactosyl acceptors | activity as galactosyl acceptor (FeGolS-2): can be used as galactosyl acceptors; activity as galactosyl acceptor (GmGolS; listed as bornesitol): can be used as galactosyl acceptors |
| OC1C(O)C(O)C(O)C(O)C1O [D-chiro-Inositol, D-chiro-inositol] |  | can be used as galactosyl acceptors | activity as galactosyl acceptor (FeGolS-1; listed as D-chiro-inositol): catalyzed the biosynthesis of fagopyritol B1; activity as galactosyl acceptor (GmGolS; listed as D-chiro-inositol): catalyzed the biosynthesis of fagopyritol B1, but not fagopyritol A1; also recorded: catalyzed the biosynthesis of fagopyritol B1; also recorded: can be used as galactosyl acceptors |
| COC1[C@@H](O)[C@@H](O)C(O)[C@H](O)[C@H]1O (stereo partly drawn) [D-ononitol, 1D-4-O-methyl-myo-inositol] | not active |  |  |
| OC[C@H]1O[C@H](OC2[C@@H](O)[C@H](O)C(O)[C@H](O)[C@@H]2O)[C@H](O)[C@@H](O)[C@H]1O (some centres unmarked) [Galactinol, galactinol] |  |  | activity as galactosyl donor (FeGolS-2; [1]): Neither FeGolS-1 nor FeGolS-2 was active; activity as galactosyl donor (FeGolS-1; [1]): Neither FeGolS-1 nor FeGolS-2 was active; activity as galactosyl donor (GmGolS; galactosyl donor instead of UDP-Gal): not active |
| OC1C(O)C(O)C(O)C(O)C1O [L-chiro-inositol] | active; also recorded: can be used as galactosyl acceptors | can be used as galactosyl acceptors |  |
| CO[C@H]1[C@H](O)[C@@H](O)[C@H](O)[C@H](O)[C@H]1O [L-quebrachitol, 1L-2-O-methyl-chiro-inositol] | not active |  |  |
| OC1C(O)C(O)C(O)C(O)C1O (stereo not drawn) [epi-inositol] | no activity |  |  |
| O[C@H]1[C@H](O)[C@@H](O)[C@H](O)[C@@H](O)[C@H]1O [myo-Inositol, myo-inositol] | catalyzed the biosynthesis of galactinol; also recorded: can be used as galactosyl acceptors | catalyzed the biosynthesis of galactinol; also recorded: can be used as galactosyl acceptors | activity as galactosyl acceptor (FeGolS-2): catalyzed the biosynthesis of galactinol; also recorded: can be used as galactosyl acceptors |
| O[C@H]1[C@H](O)[C@@H](O)[C@H](O)[C@@H](O)[C@@H]1O [scyllo-inositol] | reduced activity; also recorded: can be used as galactosyl acceptors | can be used as galactosyl acceptors | activity as galactosyl acceptor (FeGolS-2): can be used as galactosyl acceptors |
| COC1[C@@H](O)[C@H](O)C(O)[C@H](O)[C@H]1O (some centres unmarked) [sequoyitol, 5-O-methyl-myo-inositol] | not active |  |  |
